Tests used:
VEGFR2 = VEGFR2 (Homo sapiens, UniProt P35968); experiment: pull-down binding assay with endogenous VEGFR2 from HUVEC lysates; set-up: endogenous in cells; host or cells: HUVEC; settings: HUVEC lysate, anti-VEGFR2 western blot
Description: Truncated mutants of KIF13B were expressed in BL21 (DE3) or Rosetta-gami and purified as previously described (Yamada, et al. (2014) J. Cell Sci. 127:4518-30; Yamada, et al. (2007) Biochemistry 46:10039-45).
Using recombinant proteins, the binding sites on KIF13B mediating the interaction with VEGFR2 were identified. KIF13B has a motor, forkhead-associated, membrane-associated guanylate kinase-binding stalk, 2 domains of unknown function (DUFs) (DUF3694), and a proline-rich and cytoskeleton-associated protein glycine-rich domain. The DUFs were identified from amino acid sequence similarity on the Pfam database. It has been previously shown that both domains of DUF3694 directly bind recombinant VEGFR2 in vitro (Yamada, et al. (2007) Biochemistry 46:10039-45). To define the specific peptide sequence inhibiting VEGFR2 trafficking, further analysis of the second DUF3694 domain (DUF2, residues 1112-1281 of KIF13B) was carried out. This was based on stability of this domain and a sequence distinct from binding sites for other cargoes of KIF13B (Horiguchi, et al. (2006) J. Cell Biol. 174:425-436; Hanada, et al. (2000) J. Biol. Chem. 275:28774-2878). DUF2 was divided into 3 parts, DUF2A (residues […]), DUF2B (residues 1168-1216), and DUF2C (residues 1217-1281) and each part was expressed as a recombinant protein in bacteria. VEGFR2 was abundantly expressed in HUVECs; thus, cell lysate from HUVECs was incubated with these recombinant proteins on beads, and VEGFR2 binding was determined using the anti-VEGFR2 antibody.
To identify the minimum binding site on VEGFR2, DUF2C was further truncated (DUF2C1-9) (FIG. 1). […] Stability of the C5 peptide was attributed to the 4-6 C-terminal residues. Accordingly, replacing these C-terminal residues with another a peptide, one or more post-translational modifications, one or more non-natural amino acid residues, a macromolecule such as PEG, or a combination thereof, is expected to stabilize the KAI peptide.
Initially, peptide interaction with VEGFR2 was confirmed using the pull-down assay.
To further define the KIF13B residues involved in binding to VEGFR2, truncations of the DUF2C5 peptide were tested for binding to VEGFR2 (Table 3) and compared to binding of DUF2C5 and peptides flanking this region (FIG. 1).

HUVECs [1] = experiment: VEGF-induced capillary network formation on […] in vitro; type: cell-based, human; settings: synthetic peptide added
Procedure: Collagen invasion assay was performed as previously described (Kang, et al. (2011) J. Biol. Chem. 286:42017-26). In vitro capillary network formation on […] (BD Biosciences, San Jose, Calif.) and scratch wound healing assay were performed as previously described (Humtsoe, et al. (2010) Mol. Cell Biol. 30:1593-1606). Fibrin gel sprouting assay was performed as described by Nakatsu & Hughes ((2008) Methods Enzymol. 443:65-82). VEGF (2.2 nmol/L) stimulation was used for all in vitro angiogenesis assays. Transwell migration assay was performed as described by Kaplan, et al. ((2011) Free Radical Res. 45:1124-35) using VEGF (4.4 nmol/L), sphingosine-1-phosphate (S1P) (1 μmol/L), or basic fibroblast growth factor (bFGF) (50 ng/mL) in the presence or absence of kinesin-derived angiogenesis inhibitor (DUF2C5; residues 1238-1260 of KIF13B) at varying concentrations.
To test the bioactivity of the truncated mutant of KIF13B, DUF2C was expressed by lentivirus vector in HUVECs. […] The collagen invasion system (Kang, et al. (2011) J. Biol. Chem. 286:42017-42026) was used as another angiogenesis assay to test the peptides. After infection with control lentivirus, FLAG-DUF2C, or FLAG-DUF2, HUVECs were seeded on collagen gels. Cell invasion in response to proangiogenic stimuli SIP and VEGF in the gel was monitored for up to 24 hours.
Bioactivities in two-dimensional capillary network formation assay were assessed in HUVECs expressing KIF13B truncated mutants or vector controls. HUVECs were infected with lentiviruses encoding FLAG-C2, -C3, -C5, -C8, -C9, or vector.
Changes in VEGF-induced network formation assay were assessed in […] plugs. […] VEGF-induced EC sprouting was also determined by 3-dimensional culture of HUVECs on beads (Nakatsu & Hughes (2008) Methods Enzymol. 443:65-82).

HUVECs [2] = experiment: uptake of biotin-tagged peptides by HUVECs, flow cytometry; type: cell-based, human; settings: biotin-tagged peptide, 2 hours incubation
Procedure: Next, EC uptake of the peptides by HUVECs was determined. Both DUF2C5 and CT23 were designed to have high pI (pH at which the molecules carry no net charge), pI 12.1 and 10.4, respectively; thus, in neutral pH, both peptides have a positive charge important for cellular uptake (Jones, et al. (2005) Br. J. Pharmacol. 145:1093-1102). DUF2C5 and CT23 were synthesized with a biotin-tag and visualized using streptavidin-[…].

Chain of VEGFR2 (P35968 20-1356): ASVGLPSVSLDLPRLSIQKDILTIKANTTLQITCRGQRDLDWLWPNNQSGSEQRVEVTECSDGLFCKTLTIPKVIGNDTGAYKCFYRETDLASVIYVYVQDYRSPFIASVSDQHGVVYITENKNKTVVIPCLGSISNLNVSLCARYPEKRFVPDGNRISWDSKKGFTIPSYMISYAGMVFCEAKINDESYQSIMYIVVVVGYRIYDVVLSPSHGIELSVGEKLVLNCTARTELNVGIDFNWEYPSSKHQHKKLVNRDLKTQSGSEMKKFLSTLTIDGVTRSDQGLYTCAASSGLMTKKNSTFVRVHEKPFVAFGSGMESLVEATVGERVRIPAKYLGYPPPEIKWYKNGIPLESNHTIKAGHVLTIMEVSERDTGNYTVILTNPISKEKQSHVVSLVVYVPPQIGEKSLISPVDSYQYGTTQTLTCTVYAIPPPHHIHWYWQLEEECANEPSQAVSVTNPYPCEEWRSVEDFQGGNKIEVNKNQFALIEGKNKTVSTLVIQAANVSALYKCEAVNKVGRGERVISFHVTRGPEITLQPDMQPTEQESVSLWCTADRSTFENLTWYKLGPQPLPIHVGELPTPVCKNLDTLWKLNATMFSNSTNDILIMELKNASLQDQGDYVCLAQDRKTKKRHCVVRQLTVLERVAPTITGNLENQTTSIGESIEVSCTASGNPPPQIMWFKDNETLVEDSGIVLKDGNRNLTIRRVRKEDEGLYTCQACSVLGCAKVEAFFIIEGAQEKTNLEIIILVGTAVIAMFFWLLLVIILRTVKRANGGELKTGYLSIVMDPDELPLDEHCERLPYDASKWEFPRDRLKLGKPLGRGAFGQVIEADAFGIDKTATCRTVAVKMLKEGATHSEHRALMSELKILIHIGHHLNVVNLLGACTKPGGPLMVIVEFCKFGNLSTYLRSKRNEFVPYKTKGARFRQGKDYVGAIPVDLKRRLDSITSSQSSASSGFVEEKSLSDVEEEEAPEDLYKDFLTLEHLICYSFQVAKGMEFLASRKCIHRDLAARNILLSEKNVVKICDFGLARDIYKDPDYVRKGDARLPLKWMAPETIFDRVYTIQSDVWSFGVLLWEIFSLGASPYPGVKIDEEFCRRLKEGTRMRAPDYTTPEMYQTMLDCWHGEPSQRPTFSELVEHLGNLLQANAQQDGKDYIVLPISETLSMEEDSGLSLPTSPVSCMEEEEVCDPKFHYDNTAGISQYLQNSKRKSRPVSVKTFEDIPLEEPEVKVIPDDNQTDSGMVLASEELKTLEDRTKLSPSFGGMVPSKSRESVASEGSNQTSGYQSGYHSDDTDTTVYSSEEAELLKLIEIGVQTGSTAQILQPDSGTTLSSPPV

CT23: negative control, C-terminal 23-amino acid peptide, residues 1650 to 1672 of KIF13B (RVRASELRSFSRMLAGDPGCSPG)
VEGFR2 binding (VEGFR2): did not interact with VEGFR2
VEGF-induced network formation (HUVECs [1]): had no effect
uptake of the peptides by HUVECs (HUVECs [2]): shown to internalize
